For three compounds, MIC results are on record in US4248865A, “Novel aminoglycoside derivatives” (Shionogi & Co., Ltd., priority 1978, dated 1981).

What all share (assay type): cell-based
One experiment has as its system Proteus vulgaris TB-615. Description: MIC by agar dilution method, Proteus vulgaris TB-615. The settings on record: TB615, P. vulgaris TB-615, tobramycin resistant strain, 10^6 CFU/ml, 37° C., 18 to 20 hours, read-out: Minimum Inhibitory Concentration (MIC). (Agar dilution tests growth on a series of plates holding different concentrations.)
A further experiment concerns Proteus mirabilis TB-617. Description: MIC by agar dilution method, Proteus mirabilis TB-617. To be noted: TB617, P. mirabilis TB-617 (not marked as resistant), 10^6 CFU/ml, 37° C., 18 to 20 hours, read-out: Minimum Inhibitory Concentration (MIC).
Experiment [1] concerns Pseudomonas aeruginosa TB-151. Description: MIC by agar dilution method, Pseudomonas aeruginosa TB-151. The settings on record: TB151, P. aeruginosa TB-151, tobramycin resistant strain, 10^6 CFU/ml, 37° C., 18 to 20 hours, read-out: Minimum Inhibitory Concentration (MIC).

Values after ≈ are worked out from the molar mass of the structure shown.

Regarding `NC[C@H]1O[C@H](O[C@H]2[C@H](O)[C@@H](O[C@H]3O[C@H](CO)[C@@H](O)[C@H](N)[C@H]3O)[C@H](N)C[C@@H]2N)[C@H](N)C[C@@H]1O` [TOB, tobramycin, reference compound], the values for the MIC (in the experiment on Proteus vulgaris TB-615; in the experiment with Proteus mirabilis TB-617; in experiment [1]) were 50 µg/mL (≈ 107 µM), 6.2 µg/mL (≈ 13.3 µM) and 50 µg/mL (≈ 107 µM), respectively.

Take `NC[C@H]1O[C@H](O[C@H]2[C@H](O)[C@@H](O[C@H]3O[C@H](CO)[C@@H](O)[C@H](N)[C@H]3O)[C@H](NC3=NCC[C@@H]3O)C[C@@H]2N)[C@H](N)C[C@@H]1O` [[A], 1N-[(S)(-)-3-hydroxy-1-pyrrolin-2-yl]tobramycin]: the MIC in the experiment with Proteus vulgaris TB-615 came to 25 µg/mL (≈ 45.4 µM); in the experiment on Proteus mirabilis TB-617, 3.1 µg/mL (≈ 5.63 µM); in experiment [1], 25 µg/mL (≈ 45.4 µM).

Turning to `NC[C@H]1O[C@H](O[C@H]2[C@H](O)[C@@H](O[C@H]3O[C@H](CO)[C@@H](O)[C@H](N)[C@H]3O)[C@H](NC3=NCCC[C@@H]3O)C[C@@H]2N)[C@H](N)C[C@@H]1O` [[B], 1N-[(S)(-)-3-hydroxy-3,4,5,6-tetrahydropyridin-2-yl]tobramycin], the results for the MIC (with Proteus vulgaris TB-615; in the experiment with Proteus mirabilis TB-617; in experiment [1]) were 25 µg/mL (≈ 44.3 µM), 3.1 µg/mL (≈ 5.49 µM) and 25 µg/mL (≈ 44.3 µM), respectively.
